Reference: US20180311342A1, “IMMUNOSTIMULATING AGENT” (AJINOMOTO CO., INC., priority 2017, published 2018)

Legend:
Type in all cases: in vivo, BALB/c mice
[1] = test system: anti-OVA-specific IgG1 and IgG2a subclass antibody production; assay: Evaluation test of adjuvant activity (overall conclusion from anti-OVA IgG1 and IgG2a production); conditions: compound 0.256 μmol in 5% αCD-added saline with OVA 5 μg, dorsal-subcutaneous
Description: 8-Week-old female BALB/c mice were divided into groups (N=6), and each group was primarily immunized by dorsal-subcutaneous administration of (1) ovalbumin (OVA) (5 μg) dissolved in saline as an antigen (OVA single administration group), (2) OVA 5 μg and Addavax™ (mixed with saline at 1:1) dissolved in saline (Addavax™ administration group) as positive control adjuvant, (3) OVA 5 μg and SZ137 0.256 μmol dissolved or dispersed in 5% α-cyclodextrin (hereinafter to be simply referred to as αCD)-added saline (SZ137 administration group), (4) OVA (5 μg) and SZ138 (0.256 μmol) dissolved or dispersed in 5% αCD-added saline (SZ138 administration group), (5) OVA (5 μg) and SZ142 (0.256 μmol) dissolved or dispersed in 5% αCD-added saline (SZ142 administration group), (6) OVA (5 μg) and SZ144 (0.256 μmol) dissolved or dispersed in 5% αCD-added saline (SZ144 administration group), (7) OVA (5 μg) and SZ145 (0.256 μmol) dissolved or dispersed in 5% αCD-added saline (SZ145 administration group), (8) OVA (5 μg) and SZ146 (0.256 μmol) dissolved or dispersed in 5% αCD-added saline (SZ146 administration group), (9) OVA (5 μg) and SZ147 (0.256 μmol) dissolved or dispersed in 5% αCD-added saline (SZ147 administration group), (10) OVA (5 μg) and SZ148 (0.256 μmol) dissolved or dispersed in 5% αCD-added saline (SZ148 administration group), each per mouse. Two week later, the secondary immunization was carried out by dorsal-subcutaneous administration of solutions or dispersions similar to those of the above-mentioned (1)-(10) again. […]
To a 96 well plate was added 5 μg/ml OVA at 100 µl/well, and the mixture was incubated at 4° C. overnight. After incubation, the mixture was washed three times with 200 μl of PBS-T (PBS (phosphate buffered saline)+0.05% (v/v) Tween 20) per well, and blocked with 100 μl of 5% FCS (fetal calf serum)/PBS solution per well at room temperature for 1-2 hr. Thereafter, the mixture was washed three times with PBS-T (200 μl/well), a diluted serum sample (100 l/well) or the same amount of 5% FCS/PBS solution as a control was added, and the mixture was incubated at 37° C. for 1 hr. To calculate concentration of the antibody, the standard of an anti-OVA-specific IgG1 subclass antibody diluted with 2% FCS/PBS solution was added at 100 ng/ml, 50 ng/ml, 25 ng/ml, 12.5 ng/ml, 6.25 ng/ml, 3.125 ng/ml, 1.56 ng/ml, 0.781 ng/ml, 0.391 ng/ml, 0.195 ng/ml, 0.098 ng/ml, 0 ng/ml, per 1 well. When an anti-OVA-specific IgG2a subclass antibody was measured, the standard of an anti-OVA-specific IgG2a subclass antibody was added at 50 ng/ml, 25 ng/ml, 12.5 ng/ml, 6.25 ng/ml, 3.125 ng/ml, 1.56 ng/ml, 0.781 ng/ml, 0.391 ng/ml, 0.195 ng/ml, 0.098 ng/ml, 0.049 ng/ml, 0 ng/ml, per 1 well. Thereafter, similar to the samples, the mixture was washed five times with PBS-T (200 μl/well), a diluted biotinylated anti-mouse IgG1 antibody and IgG2a antibody were added (100 μl/well), and the mixture was incubated at 37° C. for 45 min. Thereafter, the mixture was washed five times with PBS-T (200 μl/well), a diluted anti-biotin-HRP antibody was added (100 μl/well), and the mixture was incubated at 37° C. for another 30 min. Thereafter, the mixture was washed five times with PBS-T (200 μl/well), TMB substrate solution was added (100 μl/well), and the mixture was incubated at room temperature for 10-15 min. Thereafter, a reaction quenching liquid (2N sulfuric acid solution) was added (50 l/well) to discontinue a color developing reaction, and the absorbance (OD Value=450 nm) was measured by a microplate reader. A standard curve was drawn from the measured OD values, and the concentration was calculated. […]

[2] = test system: anti-OVA-specific IgG1 subclass antibody; assay: Adjuvant activity test: anti-OVA-specific IgG1 subclass antibody in serum of OVA-immunized mice (ELISA); conditions: after primary immunization, serum 2 weeks later; OVA 5 μg + compound 0.256 μmol in 5% αCD-added saline (Addavax mixed with saline at 1:1), dorsal-subcutaneous; compared to OVA single administration group
[3] = test system: anti-OVA-specific IgG2a subclass antibody; assay: Adjuvant activity test: anti-OVA-specific IgG2a subclass antibody in serum of OVA-immunized mice (ELISA); conditions: after primary immunization, serum 2 weeks later; OVA 5 μg + compound 0.256 μmol in 5% αCD-added saline (Addavax mixed with saline at 1:1), dorsal-subcutaneous; compared to OVA single administration group
[4] = conclusion from IgG1/IgG2a after primary immunization

SMILES	adjuvant activity [1, 4]	anti-OVA-specific IgG1 subclass antibody production [2]	anti-OVA-specific IgG2a subclass antibody production [3]	adjuvant activity ([1]; conclusion from IgG1/IgG2a after secondary immunization)
CCCCCCCCCCCCCCCCCCCCCC(=O)N[C@@H](CSSC[C@H](NC(=O)CCCCCCCCCCCCCCCCCCCCC)C(=O)NCCCCCCCCCCCC)C(=O)NCCCCCCCCCCCC [SZ173, N-[(1R)-1-[[[(2R)-2-(docosanoylamino)-3-(dodecylamino)-3-oxo-propyl]disulfanyl]methyl]-2-(dodecylamino)-2-oxo-ethyl]docosanamide]	has an adjuvant activity	showed a tendency to increase	significantly increased	
CCCCCCCCCCCCNC(=O)[C@H](CCCNC(=N)N)N(Cc1ccccc1)Cc1ccccc1 [SZ174, (2S)-2-(Dibenzylamino)-N-dodecyl-5-guanidino-pentanamide]	have an adjuvant activity	tended to increase	significantly increased	
CCCCCCCCCCCCCCCC(=O)NCCCCCNC(=N)N [SZ175, N-(5-guanidinopentyl)hexadecanamide]	have an adjuvant activity	tended to increase	significantly increased	
CCCCCCCCCCCCCCCCCCCCCC(=O)NCCCCCNC(=N)N.Cl [SZ176, N-(5-guanidinopentyl)docosanamide]	have an adjuvant activity	tended to increase	significantly increased	
CCCCCCCCCCCCNC(=O)[C@H](CCCNC(=N)N)NC(=O)C(=O)CCCCCC.Cl [SZ177, N-[(1S)-1-(dodecylcarbamoyl)-4-guanidino-butyl]-2-oxo-octanamide]	have an adjuvant activity	tended to increase	significantly increased	
CCCCCCCCCCCCCCCCCCOC(=O)N[C@@H](CCCNC(=N)N)C(=O)NCCCCCCCCCCCC.Cl [SZ186, octadecyl N-[(1S)-1-(dodecylcarbamoyl)-4-guanidino-butyl]carbamate hydrochloride]	have an adjuvant activity	significant enhancement	significant enhancement	have an adjuvant activity
